{
  "source": "patent US20250235446A1",
  "about": "“COMPOSITION FOR INHIBITING METASTASIS AND ENHANCING ANTICANCER DRUG SENSITIVITY” (Korea Advanced Institute of Science and Technology, priority 2020, published 2025)",
  "key": {"A549 cells [1]": {"test_system": "A549 cells", "assay": "qRT-PCR of genes related to mesenchymal cells, epithelial cells and stemness", "assay_type": "cell-based", "protocol": "In addition, qRT-PCR was performed to perform transcript analysis for all genes (n=3, mean±SD). The qRT-PCR analysis was performed using a PCR system (Veriti 96well Thermal Cycler, Applied Biosystems, Waltham, MA, USA), and the qRT-PCR analysis was performed using the QuantStudio 5 real-time PCR system (Applied Biosystems, Foster City, CA), samples containing 20 μL of cDNA, primers, and SYBR Master Mix (Genet Bio, Daejeon, Korea).\n(§1) TGF-β-treated cancer cells and -untreated cancer cells were treated with Nutlin-3a (5 μM, Sigma, St. Louis, Mo) to activate p53. It was confirmed whether the epithelial cell phenotype was restored according to p53 activation, and the results were shown in FIG. 2. At this time, after inducing EMT of A549 cells under the same conditions as in Example 1-1, Nutlin-3a (1 μM, Sigma, St. Louis, Mo) was treated, and Western blot and qRT-PCR were performed in the same method as in Example 1-1.\nIn addition, in order to measure cell viability, the A549 cells from which the SMAD4 gene was deleted as described above were seeded in a 96-well plate and after 24 hours, EMT was induced and Nutlin-3a (1 μM) was treated, and then an anticancer drug 5-FU (1 μM) or DOX (0.5 μM) was treated for 5 days. In FIG. 4A, after 5 days, the cells were imaged using IncuCyte ZOOM (Sartorius, Gottingen, Germany), and the cell viability was measured by confluence of adherent living cells using IncuCyte software. In addition, the results were confirmed by qRT-PCR in the same manner as in Example 1-1 and illustrated in FIG. 4B (n=3, mean±SD).\nAlternatively, in the same manner as in Example 2, the A549 cells from which the SMAD4 gene was deleted were treated with shRNAs set forth in SEQ ID NO: 2 (shERK1) and SEQ ID NO: 3 (shERK2), thereby deleting the ERK gene. Then, the results were confirmed by western blot analysis or qRT-PCR (n=3, mean±SD)."}, "A549 cells [2]": {"test_system": "A549 cells", "assay": "Western blot of phenotype-related proteins (E-CAD, ZEB1) in EMT-induced lung cancer cells", "assay_type": "cell-based", "protocol": "The activity of TGF-β in a tumor microenvironment performs various functions, such as promoting cancer growth and EMT. Cancer cells were treated with TGF-β, an external stimulus, to induce EMT, and the results were illustrated in FIG. 1. To this end, A549 cells (KCBL No. 10185) as a lung cancer cell line were purchased from the Korean Cell Line Bank (KCLB). EMT was induced by treating the A549 cells with TGF-β (5 ng/mL, Peprotech, Cranbury, NJ, USA) for 48 hours. Changes in protein expression of cancer cells were confirmed through western blot analysis in the following process. First, cells were lysed in a lysis buffer [including 20 mM HEPES, pH 7.2, 150 mM NaCl, 0.5% Triton X-100, 10% glycerol, protease/phosphatase inhibitor mixture (protease/phosphatase inhibitor cocktail (Thermofisher, Waltham, MA))]. The lysate was centrifuged at 13,000 rpm at 4° C. for 20 minutes, and the supernatant was obtained and separated by SDS-PAGE, and then subjected to western blot analysis. To observe the amounts of proteins, E-cadherin (sc-21791), p53 (sc-126), SMAD4 (sc-7966), ZEB1 (sc-515797), mouse IgG (sc-2025) and rabbit IgG (#sc-2027) antibodies (purchased from Santa Cruz Biotechnology (Santa Cruz, CA, USA)) were used. In addition, ERK1/2 (#9102), phospho-ERK1/2 (#9106), phospho-MEK1/2 (#9121) and MYC (#13987) antibodies (Cell Signaling Technology (Beverly, MA, USA)) were used and the amounts of the proteins were observed. In addition, the rabbit polyclonal anti-GAPDH antibody was provided and used from the Korea Research Institute of Bioscience and Biotechnology.\nas §1, with “1-1. […]” for “1-1.”"}, "[3]": {"conditions": "A549 cells, TGF-β 5 ng/mL for 48 hours"}},
  "data": [
    {"compound": "COc1ccc(C2=N[C@@H](c3ccc(Cl)cc3)[C@@H](c3ccc(Cl)cc3)N2C(=O)N2CCNC(=O)C2)c(OC(C)C)c1", "note": "[Nutlin-3a]", "values": [
      {"measurement": "activity of SNAI1 gene (mesenchymal)", "setting": "A549 cells [1]; TGF-β-treated A549 cells", "result": "suppressed"},
      {"measurement": "activity of TWIST1 gene (mesenchymal)", "setting": "A549 cells [1]; TGF-β-treated A549 cells", "result": "almost no change"},
      {"measurement": "activity of ZEB1 gene (mesenchymal)", "setting": "A549 cells [1]; TGF-β-treated A549 cells", "result": "significantly inhibited"},
      {"measurement": "activity of genes CDH1 and EpCAM related to epithelial cells", "setting": "A549 cells [1]; TGF-β-treated A549 cells", "result": "rather decreased or still showed the low activity"},
      {"measurement": "epithelial cell phenotype (E-CAD+/ZEB1−), protein expression", "setting": "A549 cells [2]; TGF-β-treated A549 cells (TGF-β maintained)", "result": "converged to inactivation of E-CAD and inactivation of ZEB1"},
      {"measurement": "epithelial cell phenotype (E-CAD+/ZEB1−), protein expression", "setting": "A549 cells [2]; TGF-β-untreated A549 cells", "result": "restored"}
    ]},
    {"compound": "transforming growth factor beta [TGF-β]", "values": [
      {"measurement": "expression of GRHL2 and OVOL1 genes related to epithelial cells", "setting": "A549 cells [1]; [3]", "result": "did not show significant changes"},
      {"measurement": "expression of genes CDH1 and EpCAM related to epithelial cells", "setting": "A549 cells [1]; [3]", "result": "reduced"},
      {"measurement": "expression of genes SMAD4, ZEB1, VIM, SNAI1, SNAI2 related to mesenchymal cells", "setting": "A549 cells [1]; [3]", "result": "activated"},
      {"measurement": "expression of the E-cadherin protein", "setting": "A549 cells [2]; [3]", "result": "reduced"}
    ]}
  ]
}
